Experimental data published in patent US20210137903A1, “ANTI-ANDROGENS FOR THE TREATMENT OF PROSTRATE CANCER” (priority 2019, published 2021).
Read-outs that look alike come from different tables or passages of the source.

Legend:
Assay type in all cases: in vivo, human
[1] = Example 1 relative bioavailability study: pharmacokinetics, whole tablets vs mixture in applesauce; settings: n=10
Method: This was a randomized, open-label, balanced, single dose, two-treatment, two-period, two-sequence, crossover relative bioavailability study.
Healthy male subjects were randomly assigned to 1 of 2 treatment sequences by following the randomization scheme as given below.
All study drug were taken in the morning on Day 1 of each treatment period. […] For Treatment B, the study drug-applesauce mixture was prepared by a pharmaceutical technician or pharmacist. An additional 50 mL of water for either treatments was allowed if necessary. Study drug of Treatment B was be ingested within 5 minutes. Treatment A was be swallowed whole and not chewed, divided, dissolved, or crushed.
Additional PK parameters could be included if deemed appropriate.
Pharmacokinetic analysis was performed by or under the responsibility of the sponsor.
Pharmacokinetic and statistical analysis were done using Phoenix™ WinNonlin® (Tripos L.P.). Noncompartmental analysis was applied for the pharmacokinetic analysis. Furthermore, Microsoft Excel® (Microsoft, Redmond, Wash., United States), and SAS (SAS Institute Inc., Cary, N.C., US) were used.
If one of the PK parameters could not be determined for a given subject in 1 or more periods, the subject's data was not included in the statistical analysis of that particular PK parameter. The analysis was performed on log-transformed PK parameters.
A mixed effect model that includes treatment, period, and treatment sequence as fixed effects, and subject as a random effect, was used to estimate the least squares means and intrasubject variance. Using these estimated least squares means and intrasubject variance, the point estimate and 90% CIs for the difference in means on a log scale between test and reference were constructed. The limits of the CIs was retransformed using antilogarithms to obtain 90% CIs for the geometric mean ratios of Cmax and AUC0-168 h of the test to reference formulation. A similar analysis was conducted for AUC0-72 h for supplemental purpose.

[2] = Single 240-mg dose pharmacokinetics in healthy subjects (earlier studies)
Source text: Apalutamide is a Biopharmaceutics Classification System Class II drug (highly permeable and poorly soluble). The commercialized formulation is a spray dried powder of amorphous apalutamide.

high-risk nmCRPC = assay: Phase 3 SPARTAN registration study, apalutamide 240 mg once daily vs placebo
Source text: This study was a randomized, double-blind, placebo-controlled, multicenter trial that evaluated apalutamide treatment in patients with high-risk nmCRPC. […] All patients continued to receive ongoing androgen-deprivation therapy (GnRHa or surgical castration).

## CNC(=O)c1ccc(N2C(=S)N(c3cnc(C#N)c(C(F)(F)F)c3)C(=O)C23CCC3)cc1F [apalutamide, 4-[7-(6-cyano-5-trifluoromethylpyridin-3-yl)-8-oxo-6-thioxo-5,7-diazaspiro[3.4]oct-5-yl]-2-fluoro-N-methylbenzamide]
[1]
  AUC0-72h Intra-subject CV(%): 3.7%
  AUC0-168h Intra-subject CV(%): 2.7%
  Cmax Intra-subject CV(%): 13.8%
[2]; fed vs fasted
  Cmax lower with a high-fat meal compared to fasted: approximately 16%
  extent of absorption based on AUC∞ under fed conditions: remained unchanged
[2]; human, in vivo, oral, single dose 240 mg, read-out: absolute bioavailability
  bioavailability: ~100%
[2]; human, plasma, oral, 240 mg, N=15, read-out: mean single dose plasma Cmax
  Cmax: ~2400 ng/mL
[2]; human, plasma, oral, 240 mg, human, read-out: half-life (converted)
  half-life: ~168 h
[2]; human, plasma, oral, 240 mg, read-out: mean Cmax from a similar study
  Cmax: 2420 ng/mL
[2]; human, plasma, oral, 240 mg, read-out: mean elimination half-life (t1/2) (converted)
  half-life: ~162 h
[2]; human, plasma, oral, 240 mg, N=15, read-out: AUC0-168 h from another bioavailability study
  AUC(0-t): 121 µg·h/mL
[2]; human, plasma, oral, 240 mg, N=15, read-out: mean AUC28
  AUC: 225 µg·h/mL
[2]; human, plasma, oral, single 240-mg dose, tablet, healthy subjects, read-out: median Tmax
  Tmax: 2 to 3 h
[2]; single dose 240 mg
  Fabs: 1.11
high-risk nmCRPC; 192 subjects
  subjects with documented PSA progression: 24%
high-risk nmCRPC; TEAE incidence
  arthralgia: 16%
  diarrhea: 20%
  fatigue: 30%
  hypertension: 25%
  nausea: 18%
  weight decreased: 16%
high-risk nmCRPC; TEAE incidence, all grades
  fall: 16%
  skin rash (grouped term): 24%
high-risk nmCRPC; all grades
  fracture: 12%
  hypothyroidism: 8.1%
  seizure: 0.2%
high-risk nmCRPC; in vivo
  Grade 3 skin rashes: 5.2%
  decrease of risk of PSA progression compared with placebo: 94%
  incidence of AEs of special interest: 42%
  longer median metastasis-free survival over placebo: 2 years
  lower limit of the 95% CI for the median time to PSA progression: 36.8 months
  median time to PSA progression: not estimable
  subjects who discontinued treatment due to TEAEs: 11%
  subjects with Grade 3-4 TEAEs: 45%
  subjects with serious adverse events (SAEs): 25%
  subjects with treatment-emergent adverse events: 97%
  total PSA response (confirmed and unconfirmed): 93%
high-risk nmCRPC; subjects in apalutamide arm
  confirmed prostate-specific antigen (PSA) response: 90%
high-risk nmCRPC; vs placebo, 95% CI: 0.052, 0.080
  HR for PSA progression: 0.064
